How the values were obtained:
[1] = system: covalently-activated EGFR variants; assay: Covalent dimer formation, Western blot under non-reducing conditions; format: cell-based
GBM = settings: in combination with radiation and temozolomide; cited from earlier work
[2] = system: cells having the EGFR-Vii mutation; assay: Proliferation of cells having the EGFR-Vii mutation (FIG. 18); format: cell-based
Procedure: (§1) EC50 values were determined with the same application.

[3] = system: cells expressing ErbB ectodomain variants
EGFR WT [4] = molecular target: T1, EGFR WT (Homo sapiens, UniProt P00533); assay: Activity for inhibiting EGFR (Table A), EGFR WT; format: cell-based; settings: read-out: EGFR WT, potency code (IC50)
T1 sequence (P00533 25-1210 N540K): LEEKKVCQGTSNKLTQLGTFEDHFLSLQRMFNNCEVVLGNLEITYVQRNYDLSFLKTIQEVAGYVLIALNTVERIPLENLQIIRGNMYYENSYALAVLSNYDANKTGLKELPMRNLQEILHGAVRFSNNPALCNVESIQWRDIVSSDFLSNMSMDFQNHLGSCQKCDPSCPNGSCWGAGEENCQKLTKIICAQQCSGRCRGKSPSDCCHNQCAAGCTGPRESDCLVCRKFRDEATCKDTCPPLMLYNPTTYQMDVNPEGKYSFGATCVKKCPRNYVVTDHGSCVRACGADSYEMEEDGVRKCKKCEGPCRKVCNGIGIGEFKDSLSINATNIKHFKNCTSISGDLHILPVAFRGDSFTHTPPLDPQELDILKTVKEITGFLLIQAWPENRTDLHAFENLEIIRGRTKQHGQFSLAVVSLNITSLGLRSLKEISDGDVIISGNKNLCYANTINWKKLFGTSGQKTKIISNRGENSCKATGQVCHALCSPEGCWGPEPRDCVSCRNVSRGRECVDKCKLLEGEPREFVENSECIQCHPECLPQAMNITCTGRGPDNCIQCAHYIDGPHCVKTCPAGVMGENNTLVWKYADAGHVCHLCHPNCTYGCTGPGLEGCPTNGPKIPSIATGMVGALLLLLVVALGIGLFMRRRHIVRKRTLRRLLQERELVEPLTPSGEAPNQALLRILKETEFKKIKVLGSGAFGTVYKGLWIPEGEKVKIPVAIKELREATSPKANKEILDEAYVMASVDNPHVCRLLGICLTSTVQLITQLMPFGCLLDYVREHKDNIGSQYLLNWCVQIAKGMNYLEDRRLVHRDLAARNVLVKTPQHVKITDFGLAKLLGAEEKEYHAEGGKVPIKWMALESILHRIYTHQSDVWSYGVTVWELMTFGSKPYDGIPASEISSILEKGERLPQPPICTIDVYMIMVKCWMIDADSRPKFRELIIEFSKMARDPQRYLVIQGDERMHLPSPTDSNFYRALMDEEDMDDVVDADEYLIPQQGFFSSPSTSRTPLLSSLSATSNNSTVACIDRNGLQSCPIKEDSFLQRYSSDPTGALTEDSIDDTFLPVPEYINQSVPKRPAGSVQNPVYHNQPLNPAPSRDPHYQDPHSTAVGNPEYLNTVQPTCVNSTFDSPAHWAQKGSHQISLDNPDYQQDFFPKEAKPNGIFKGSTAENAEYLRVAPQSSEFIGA

EGFR V3 [5] = molecular target: T2, EGFR V3 (Homo sapiens, UniProt P00533, DELINS30-297G); assay: Activity for inhibiting EGFR (Table A), EGFR V3 (EGFR-Viii); format: cell-based; settings: read-out: EGFR V3, potency code (IC50)
T2 construct: expressed in transfected cells; host or cells: BaF3 (murine pro-B), retroviral pMXs-IRES-Blasticidin
T2 sequence (P00533 with tags, fused parts or gaps DELINS30-297G): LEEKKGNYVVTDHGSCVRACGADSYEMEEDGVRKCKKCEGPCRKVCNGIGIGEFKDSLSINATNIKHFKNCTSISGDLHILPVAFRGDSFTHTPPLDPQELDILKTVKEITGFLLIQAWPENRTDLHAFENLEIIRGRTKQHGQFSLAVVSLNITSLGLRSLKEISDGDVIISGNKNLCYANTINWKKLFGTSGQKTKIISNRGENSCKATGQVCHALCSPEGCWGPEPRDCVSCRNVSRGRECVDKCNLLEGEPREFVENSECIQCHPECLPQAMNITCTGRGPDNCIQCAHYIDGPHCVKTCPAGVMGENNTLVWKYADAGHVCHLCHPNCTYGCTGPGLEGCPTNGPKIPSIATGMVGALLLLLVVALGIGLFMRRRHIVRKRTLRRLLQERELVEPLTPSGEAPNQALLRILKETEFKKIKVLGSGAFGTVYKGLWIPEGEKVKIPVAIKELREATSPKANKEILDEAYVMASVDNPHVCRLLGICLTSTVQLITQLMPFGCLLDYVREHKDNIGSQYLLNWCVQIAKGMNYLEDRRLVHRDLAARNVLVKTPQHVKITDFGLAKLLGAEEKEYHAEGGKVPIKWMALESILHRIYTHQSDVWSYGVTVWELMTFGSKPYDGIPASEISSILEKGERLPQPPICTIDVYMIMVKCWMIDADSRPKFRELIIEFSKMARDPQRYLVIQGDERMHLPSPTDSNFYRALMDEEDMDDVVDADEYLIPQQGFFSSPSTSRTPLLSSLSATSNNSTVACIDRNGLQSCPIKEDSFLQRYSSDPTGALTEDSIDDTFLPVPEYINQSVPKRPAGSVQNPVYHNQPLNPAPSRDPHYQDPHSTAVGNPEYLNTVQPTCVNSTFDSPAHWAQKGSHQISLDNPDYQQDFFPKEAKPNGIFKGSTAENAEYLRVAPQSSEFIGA

HER2 WT [6] = molecular target: T3, HER2 WT (Homo sapiens, UniProt P04626); assay: Activity for inhibiting HER2 (Table B), HER2 WT; format: cell-based
T3 sequence (P04626 23-1255): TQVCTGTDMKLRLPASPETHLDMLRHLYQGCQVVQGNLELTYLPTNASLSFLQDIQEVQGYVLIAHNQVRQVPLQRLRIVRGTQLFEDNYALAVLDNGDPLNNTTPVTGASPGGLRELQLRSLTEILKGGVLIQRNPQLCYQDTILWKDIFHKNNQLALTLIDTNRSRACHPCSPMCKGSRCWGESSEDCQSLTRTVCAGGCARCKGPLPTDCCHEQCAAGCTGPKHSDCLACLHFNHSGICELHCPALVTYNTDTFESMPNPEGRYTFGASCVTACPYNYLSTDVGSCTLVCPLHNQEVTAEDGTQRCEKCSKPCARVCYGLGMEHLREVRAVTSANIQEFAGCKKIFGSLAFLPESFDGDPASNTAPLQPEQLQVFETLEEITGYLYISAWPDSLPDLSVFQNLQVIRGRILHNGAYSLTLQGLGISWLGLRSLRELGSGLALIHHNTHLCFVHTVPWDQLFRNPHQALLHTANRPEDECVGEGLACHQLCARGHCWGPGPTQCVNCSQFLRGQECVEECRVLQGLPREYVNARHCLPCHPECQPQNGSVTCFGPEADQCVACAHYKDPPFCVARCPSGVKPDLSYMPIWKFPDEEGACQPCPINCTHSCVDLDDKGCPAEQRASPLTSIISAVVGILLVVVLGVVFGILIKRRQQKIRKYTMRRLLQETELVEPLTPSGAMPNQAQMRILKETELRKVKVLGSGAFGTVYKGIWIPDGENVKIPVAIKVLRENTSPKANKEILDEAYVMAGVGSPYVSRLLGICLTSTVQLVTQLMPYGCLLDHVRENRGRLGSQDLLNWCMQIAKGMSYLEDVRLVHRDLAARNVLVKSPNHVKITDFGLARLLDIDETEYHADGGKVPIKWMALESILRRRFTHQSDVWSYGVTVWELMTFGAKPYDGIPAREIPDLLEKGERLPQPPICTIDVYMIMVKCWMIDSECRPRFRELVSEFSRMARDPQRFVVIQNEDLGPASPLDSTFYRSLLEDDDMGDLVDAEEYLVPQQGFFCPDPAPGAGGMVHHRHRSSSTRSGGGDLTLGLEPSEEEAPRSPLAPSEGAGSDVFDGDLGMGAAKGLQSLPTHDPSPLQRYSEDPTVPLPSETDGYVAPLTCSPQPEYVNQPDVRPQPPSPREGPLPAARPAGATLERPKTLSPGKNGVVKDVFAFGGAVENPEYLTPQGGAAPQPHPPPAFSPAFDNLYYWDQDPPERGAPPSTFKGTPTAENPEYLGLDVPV

HER2 S310F [7] = molecular target: T4, HER2 S310F (Homo sapiens, UniProt P04626, S310F); assay: Activity for inhibiting HER2 (Table B), HER2 S310F; format: cell-based; settings: read-out: HER2 S310F, potency code (IC50)
T4 construct: expressed in transfected cells; host or cells: BaF3 (murine pro-B)
T4 sequence (P04626 23-1255 S310F): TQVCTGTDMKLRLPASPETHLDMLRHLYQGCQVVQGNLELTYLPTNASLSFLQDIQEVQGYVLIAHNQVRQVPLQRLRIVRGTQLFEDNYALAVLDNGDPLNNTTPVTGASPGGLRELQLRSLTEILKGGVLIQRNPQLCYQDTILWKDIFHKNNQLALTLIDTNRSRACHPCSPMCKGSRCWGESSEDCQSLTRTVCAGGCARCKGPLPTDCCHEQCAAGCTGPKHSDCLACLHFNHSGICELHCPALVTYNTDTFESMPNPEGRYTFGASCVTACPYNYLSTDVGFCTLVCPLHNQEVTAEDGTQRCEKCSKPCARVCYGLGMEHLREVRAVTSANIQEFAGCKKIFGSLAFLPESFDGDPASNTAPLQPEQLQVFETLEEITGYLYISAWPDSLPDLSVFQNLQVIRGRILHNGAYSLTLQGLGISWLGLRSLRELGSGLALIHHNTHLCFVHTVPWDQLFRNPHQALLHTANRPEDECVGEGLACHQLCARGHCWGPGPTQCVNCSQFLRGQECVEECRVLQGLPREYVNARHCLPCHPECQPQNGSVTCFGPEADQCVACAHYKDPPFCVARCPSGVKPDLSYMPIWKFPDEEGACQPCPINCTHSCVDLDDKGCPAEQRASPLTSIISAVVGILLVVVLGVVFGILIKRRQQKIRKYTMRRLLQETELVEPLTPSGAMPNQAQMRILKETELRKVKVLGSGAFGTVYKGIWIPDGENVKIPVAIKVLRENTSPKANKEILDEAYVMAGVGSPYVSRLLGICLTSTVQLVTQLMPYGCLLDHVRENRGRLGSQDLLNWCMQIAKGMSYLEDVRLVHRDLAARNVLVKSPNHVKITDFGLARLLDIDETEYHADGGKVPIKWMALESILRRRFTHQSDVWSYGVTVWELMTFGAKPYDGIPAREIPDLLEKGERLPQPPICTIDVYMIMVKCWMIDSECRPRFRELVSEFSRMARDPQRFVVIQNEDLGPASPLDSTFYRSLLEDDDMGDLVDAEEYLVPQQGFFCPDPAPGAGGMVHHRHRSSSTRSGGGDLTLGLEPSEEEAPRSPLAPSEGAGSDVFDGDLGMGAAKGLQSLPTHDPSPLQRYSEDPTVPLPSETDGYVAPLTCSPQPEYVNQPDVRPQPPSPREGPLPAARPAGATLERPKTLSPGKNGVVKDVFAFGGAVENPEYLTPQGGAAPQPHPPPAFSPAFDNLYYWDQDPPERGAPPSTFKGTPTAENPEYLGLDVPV
Procedure: as §1

HER2 YVMA [8] = molecular target: T5, HER2 YVMA (Homo sapiens, UniProt P04626, INS775YVMA); assay: Activity for inhibiting HER2 (Table B), HER2 YVMA; format: cell-based; settings: read-out: HER2 YVMA, potency code (IC50)
T5 construct: expressed in transfected cells; host or cells: BaF3 (murine pro-B)
Procedure: as §1

EGFR WT [9] = molecular target: T1, EGFR WT; assay: BaF3 cell proliferation assay, EGFR WT (Table A); format: cell-based; settings: potency code, 3 days, CellTiterGlo, read-out: EGFR WT (Activity for Inhibiting EGFR)
Outline: (§2)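 Steps: HEK 293T transfected with pMXs-IRES-Blasticidin kinase vector plus Gag-Pol and VSV-G; virus harvested at 24 and 48 hrs; BaF3 infected twice by centrifugation, Blasticidin-selected, then grown without IL-3. Proliferation EC50 measured.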

EGFR V3 [10] = molecular target: T2, EGFR V3; assay: BaF3 cell proliferation assay, EGFR V3 (Table A); format: cell-based; settings: potency code, 3 days, CellTiterGlo, read-out: EGFR V3 (Activity for Inhibiting EGFR)
Outline: as §2

HER2 WT [11] = molecular target: T3, HER2 WT; assay: BaF3 cell proliferation assay, HER2 WT (Table B); format: cell-based; settings: potency code, 3 days, CellTiterGlo, read-out: HER2 WT (Activity for Inhibiting HER2)
HER2 S310F [12] = molecular target: T4, HER2 S310F; assay: BaF3 cell proliferation assay, HER2 S310F (Table B); format: cell-based; settings: potency code, 3 days, CellTiterGlo, read-out: HER2 S310F (Activity for Inhibiting HER2)
HER2 YVMA [13] = molecular target: T5, HER2 YVMA; assay: BaF3 cell proliferation assay, HER2 YVMA (Table B); format: cell-based; settings: potency code, 3 days, CellTiterGlo, read-out: HER2 YVMA (Activity for Inhibiting HER2)
HER2 S310F [14] = assay: Tumor pHER2/pERK AlphaLisa in mice bearing HER2 S310F BaF3 tumors (Examples 15-18); format: in vivo; settings: two day acute oral dosing, 15 mg/kg; at peak plasma levels
Procedure: (§3) Following the second dose, tumors were collected at 2 hours, 5 hours, 12 hours and 24 hours, and analyzed for both pHER2 activity and pERK activity via AlphaLisa. Plasma was also collected at these time points and analayzed for the presence of Compound No. 21 to determine pharmacokinetic profile. The tumor tissue was cut and homogenized using the Precellys Soft Tissue Homogenizing kit (KT03961-1-00.3.2) containing T-PER tissue protein extraction reagent (Thermo Scientific #78510), supplemented with Protease Inhibitor (Sigma P8340), and Phosphatase Inhibitors II and III (Sigma P5726 and P0044). Tissue samples were homogenized in the Precellys machine by spinning two times for one minute each. Sample tubes were centrifuged for 5 min at 15,000 rpm at 4° C. The supernatant was transferred to a fresh microtube and spun again for 5 minutes at 15,000 rpm at 4° C. Supernatant was then transferred to a fresh microtube and placed on ice. The protein concentration of the supernatant was measured using the BCA reagent Kit (Thermo Scientific #23225). Tumor tissue-derived lysates were analyzed for either HER2 activity or EGFR activity by detection of pHER2 (Tyr1221/1222) or pERK (Thr202/Tyr204) phosphosites, respectively, via AlphaLisa. Briefly, tumor Lysates were diluted to 0.5 ug/ul in 1× diluted SureFire Ultra Kit Lysis Buffer (5× supplied stock) supplemented with Protease Inhibitor (Sigma P8340) and Phosphatase Inhibitor II and III (Sigma P5726 and P0044). 10 ul of total tumor lysate was added per well in triplicate to a 384-well Opti-plate (Perkin Elmer #6007290). Activation Buffer was diluted 25-fold in combined Reaction Buffer 1 and Reaction Buffer 2, and acceptor beads were diluted 50-fold in the combined Reaction Buffers. 5 ul/well of the Acceptor bead:Reaction buffer mixture was added to each well.
as §3, with “No. 5” for “No. 21”, “Buffer (X” for “Buffer (5×”
To determine the ability of Compound No. 118 to inhibit tumor growth and induce tumor regression in vivo, a mouse tumor model containing the HER2 S310F mutation was used. Athymic nude mice from Charles River Labs bearing HER2 S310F BaF3 tumors were treated with two day acute oral dosing of Compound No. 118 at 15 mg/kg. […]

[15] = system: HER2 extracellular variants; assay: Covalent dimer formation of HER2 extracellular variants, Western blot; format: cell-based; settings: Type I inhibitors
BaF3-HER2-Δ16 cells = assay: Proliferation of BaF3 cells driven by HER2-Δ16; format: cell-based, murine; settings: sub-saturating concentrations
Procedure: Assay for cell proliferation: BaF3 cell lines were resuspended at 1.3E5 c/ml in RPMI containing 10% Heat Inactivated FBS, 2% L-glutamine and 1% Pen/Strep and dispensed in triplicate (17.5E4 c/well) into 96 well plates. To determine the effect of drug on cell proliferation, cells incubated for 3 days in the presence of vehicle control or test drug at varying concentrations. Inhibition of cell growth was determined by luminescent quantification of intracellular ATP content using CellTiterGlo (Promega), according to the protocol provided by the manufacturer. Comparison of cell number on day 0 versus 72 hours post drug treatment was used to plot dose-response curves. The number of viable cells was determined and normalized to vehicle-treated controls. […] EC50 values were determined with the same application.

C=CC(=O)Nc1cccc(Nc2nc(Nc3ccc(N4CCN(C(C)=O)CC4)cc3OC)ncc2C(F)(F)F)c1 [CO-1686]
Induced dimers [1]: Yes

C#Cc1cccc(Nc2ncnc3cc(OCCOC)c(OCCOC)cc23)c1 [Erlotinib, erlotinib]
median OS (mOS) (GBM): 8.6 months | median PFS (mPFS) (GBM): 2.8 months

CN(C)C/C=C/C(=O)Nc1cc2c(Nc3ccc(F)c(Cl)c3)ncnc2cc1C#CC1[C@H]2COC[C@@H]12 (some centres unmarked) [NT-113]
dimerization for covalently activated ErbB receptors ([1]; FIG. 18 legend): induces dimerization | cellular proliferation in response to the inhibitor [2]: no evidence for increased cellular proliferation

CCOc1cc2ncc(C#N)c(Nc3ccc(OCc4ccccn4)c(Cl)c3)c2cc1NC(=O)/C=C/CN(C)C [Neratinib, neratinib]
paradoxical activation [3]: devoid of paradoxical activation

CCOc1cc2ncc(C#N)c(Nc3ccc(F)c(Cl)c3)c2cc1NC(=O)/C=C/CN(C)C [Pelitinib, pelitinib]
Induced dimers [1]: Yes

C=CC(=O)Nc1cccc(Oc2nc(Nc3ccc(N4CCN(C)CC4)cc3)ncc2Cl)c1 [WZ3146]
Induced dimers [1]: Yes

C=CC(=O)Nc1cccc(Oc2nc(Nc3ccc(N4CCN(C)CC4)cc3OC)ncc2Cl)c1 [WZ4002]
Induced dimers [1]: Yes

C=CC(=O)Nc1cccc(Sc2nc(Nc3ccc(N4CCN(C)CC4)cc3)ncc2Cl)c1 [WZ8040]
Induced dimers [1]: Yes

C=CC(=O)Nc1cc2c(Nc3ccc(OCc4cccc(F)c4)c(Cl)c3)ncnc2cc1OCCN1CCOCC1 [compound 27]
IC50 (EGFR WT [4]): 300 to 500 nM | IC50 (EGFR V3 [5]): 30 to 50 nM | IC50 (HER2 WT [6]; Table B, read-out: HER2 WT, potency code (IC50)): 10 to 20 nM | IC50 (HER2 WT [6]; text lists of compounds, read-out: IC50 value for inhibiting wild-type HER2): ≤ 20 nM | IC50 (HER2 S310F [7]): 20 to 30 nM | IC50 (HER2 YVMA [8]): 30 to 50 nM | IC50 (EGFR WT [9]): 300 to 500 nM | IC50 (EGFR V3 [10]): 30 to 50 nM | IC50 (HER2 WT [11]): 10 to 20 nM | IC50 (HER2 S310F [12]): 20 to 30 nM | IC50 (HER2 YVMA [13]): 30 to 50 nM | pERK1/2 (Thr202/Tyr204) in tumors (HER2 S310F [14]): reduction | pHER2 (Tyr1221/1222) in tumors (HER2 S310F [14]): reduction

C=CC(=O)Nc1cc2c(Nc3ccc(OCc4ccccn4)c(Cl)c3)ncnc2cc1OCCCN1CC(OC)C1 [compound 118]
IC50 (EGFR WT [4]): 200 to 300 nM | IC50 (EGFR V3 [5]): 20 to 30 nM | IC50 (HER2 S310F [7]): 10 to 20 nM | IC50 (HER2 YVMA [8]): 20 to 30 nM | IC50 (EGFR WT [9]): 200 to 300 nM | IC50 (EGFR V3 [10]): 20 to 30 nM | IC50 (HER2 S310F [12]): 10 to 20 nM | IC50 (HER2 YVMA [13]): 20 to 30 nM | pERK1/2 (Thr202/Tyr204) in tumors (HER2 S310F [14]): reduction | pHER2 (Tyr1221/1222) in tumors (HER2 S310F [14]): reduction

CNC(=O)CN1CCC(Oc2cc3c(Nc4cccc(Cl)c4F)ncnc3cc2OC)CC1 [sapitinib]
covalent dimers for HER2 extracellular variants [15]: induce the expression of covalent dimers | proliferation of BaF3 cells driven by HER2-Δ16 (BaF3-HER2-Δ16 cells): paradoxically stimulate the proliferation
